Test results from patent EP0742015A1, “Prodrugs for beta-lactamase and uses thereof” (Bristol-Myers Squibb Company, priority 1990, dated 1992).

Experiments:
[1] = biological target: T1, BCP II (Bacillus cereus penicillinase) (Bacillus cereus, UniProt P04190); test: Conversion of the cephalosporin-mitomycin prodrug by BCP II in PBS, followed by TLC; type: biochemical; details: 0.3 mg compound in PBS (1 mL), BCP II 10 µL (4.1 mg/mL)
T1 sequence (P04190 31-257): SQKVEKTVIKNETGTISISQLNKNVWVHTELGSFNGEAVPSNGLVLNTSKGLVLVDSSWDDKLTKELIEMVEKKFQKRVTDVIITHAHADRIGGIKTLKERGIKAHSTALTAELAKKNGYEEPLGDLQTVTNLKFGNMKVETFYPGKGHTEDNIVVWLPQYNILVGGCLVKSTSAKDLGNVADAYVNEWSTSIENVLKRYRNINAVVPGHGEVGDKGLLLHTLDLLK
Method: To a greyish blue solution of the title compound (0.3 mg) in PBS (1 mL) was added BCP II (Bacillus cereus penicillinase, 10 µL, protein concentration = 4.1 mg/mL). Immediately the color changed to blue.

[2] = biological target: T2, B. cereus β-lactamase (II) (Bacillus cereus, UniProt P04190); type: biochemical
T2 sequence (P04190 31-257): T1 sequence (P04190 31-257)

[3] = biological target: L6-lactamase (B. cereus) conjugate (Bacillus cereus, UniProt P04190); type: biochemical; details: pH 7
[4] = biological target: P99 cephalosporinase from E. cloacae (Enterobacter cloacae, UniProt P05364); type: biochemical; details: pH 7
Sequence of P99 cephalosporinase from E. cloacae (P05364 21-381): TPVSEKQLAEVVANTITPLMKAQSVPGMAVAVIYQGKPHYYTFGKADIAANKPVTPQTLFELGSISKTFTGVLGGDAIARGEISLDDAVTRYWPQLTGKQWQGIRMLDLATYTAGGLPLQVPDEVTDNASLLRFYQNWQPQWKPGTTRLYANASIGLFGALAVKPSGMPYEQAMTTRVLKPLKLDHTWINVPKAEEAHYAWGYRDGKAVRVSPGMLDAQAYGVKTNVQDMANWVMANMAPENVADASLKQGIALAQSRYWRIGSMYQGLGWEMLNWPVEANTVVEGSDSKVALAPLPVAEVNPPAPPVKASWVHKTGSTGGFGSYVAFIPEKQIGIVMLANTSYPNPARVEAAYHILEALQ

[5] = biological target: Sigma penicillinase from E. cloacae (Enterobacter cloacae, UniProt P05364); test: Specific activity of β-lactamases for cephalosporin substrates, spectrophotometric; type: biochemical; details: substrate 100 µg/ml, 0.05 M phosphate buffer, pH 7.0, 25°C
Sequence of Sigma penicillinase from E. cloacae (P05364 21-381): as above
Method: The specific activities of selected β-lactamases for ADR-ceph were examined. These enzymes were B. cereus β-lactamase, lactamase-L6 conjugate, Sigma penicillinase from E. cloacae (Sigma Chemical) and P99 cephalosporinase from E. cloacae. All enzymes were diluted to give protein concentrations of 0.20 ± 0.01 mg/ml (with respect to β-lactamase). Assays were performed spectrophotometrically to 0.05 M phosphate buffer, pH 7.0, at 25°C. Cephaloridine was used as a reference substrate for the enzymes.
P99 cephalosporinase had the highest specific activity for both cephaloridine and ADR-ceph. […] The Sigma "penicillinase" had the lowest activity of all the preparations. […] The differences in activity is probably due to differences in purity between the two preparations.

[6] = Stability of ADR-ceph in human plasma at 37°C, HPLC; type: in vitro ADME
Method: (§1) Stock solutions of the β-lactamase and lactamase-L6 conjugate were prepared in 0.05 M Hepes buffer (pH7). Aliquots of these stock solutions were added to solutions of ADR-ceph in human plasma thermostated at 37°C. The final concentration of ADR-ceph was 572 µg/ml in the β-lactamase experiment and 896 µg/ml in the L6-lactamase experiment; and the final concentrations of β-lactamase and L6-lactamase conjugate were 0.45 µg/ml and 5.4µg/ml, respectively. Aliquots were withdrawn periodically and were added to two volumes of cold methanol (4°C). The precipitated proteins were removed by centrifugation. The supernatants were analyzed by HPLC using a Waters Associates C18 Radial Pak cartridge (8x100 mm). The column was eluted at 2.0 mL/min with a mobile phase of 60% of 0.05 M ammonium phosphate (pH 6.5) containing 5% acetonitrile and 40% of a mixture of acetonitrile-water (80:20). The peaks were detected by uv at 254 nm. In these assays the respective retention times for adriamycin and ADR-ceph were 3.8 and 7.5 minutes.
(§2) Using the same HPLC assay described in Example 2.2.2 the respective half lives at 37°C of ADR-ceph in rat plasma, buffer at pH 7.4, and human plasma are 8, 20 and ≧ 12 hours (Figure 9).

[7] = biological target: β-lactamase from B. cereus (Bacillus cereus, UniProt P04190); test: Release of adriamycin from ADR-ceph in human plasma at 37°C, HPLC; type: biochemical; details: human plasma 37°C, ADR-ceph 572 µg/ml, β-lactamase 0.45 µg/ml
Method: The ability of the purified β-lactamase from B. cereus and the lactamase-L6 conjugate to catalyze the release of adriamycin from ADR-ceph was evaluated in human plasma at 37°C.
as §1

B. cereus β-lactamase [8] = biological target: B. cereus β-lactamase (Bacillus cereus, UniProt P04190); type: biochemical; details: substrate 100 µg/ml, 0.05 M phosphate buffer, pH 7.0, 25°C
[9] = Stability of ADR-ceph in rat plasma at 37°C, HPLC; type: in vitro ADME
Method: as §1, §2

[10] = Stability of ADR-ceph in buffer at pH 7.4 at 37°C, HPLC; type: physicochemical; details: buffer at pH 7.4, 37°C
Method: as §1, §2

E. coli β-lactamase = test: Hydrolysis of CM by commercially available β-lactamase in PBS at 37° C, HPLC; type: biochemical; details: CM 50 µM in PBS at 37° C, 3 µg total protein/ml, partially purified enzyme
H2981 lung cells = test: In vitro cytotoxicity of CM with L6-β-lactamase conjugate, 3H-thymidine incorporation; details: cells exposed to L6-β-lactamase conjugate 1 hr at 37° C, washed, then CM
[11] = system: human lung adenocarcinoma cell line, H2981
B. cereus β-lactamase [12] = biological target: T3, B. cereus β-lactamase (Bacillus cereus, UniProt P04190); type: biochemical; details: CM 50 µM in PBS at 37° C, 3 µg total protein/ml, partially purified enzyme
T3 construct: purchased Sigma Chem. Co
T3 sequence (P04190 31-257): T1 sequence (P04190 31-257)

Balb C nu/nu mice = details: mouse, in vivo, iv
physchem = details: imdm cell growth medium
in vitro = details: mouse, plasma

In the case of COC12C(COC(N)=O)C3=C(C(=O)C(C)=C(NCC4=C(C(=O)O)N5C(=O)C(NC(=O)Cc6ccccc6)C5SC4)C3=O)N1CC1NC12 (centres unmarked) [Example 1.2.5, 7-Phenylacetamido-3-(N^7-mitomycin C)-8-oxo-5-thia-1-azabicyclo[4.2.0]oct-2-ene-2-carboxylic acid], the “conversion to mitomycin C” value [1] is reported as “complete conversion to mitomycin C”.
For O=C(O)CN(CCN(CC(=O)O)CC(=O)O)CC(=O)O [EDTA, reference compound], the “inhibition of the enzyme activity” value [2] was “completely inhibited”.
In the case of COc1cccc2c1C(=O)c1c(O)c3c(c(O)c1C2=O)C[C@@](O)(C(=O)CO)C[C@@H]3O[C@H]1C[C@H](NC(=O)OCC2=C(C(=O)O)N3C(=O)C(NC(=O)Cc4ccccc4)C3SC2)[C@H](O)[C@H](C)O1 (some centres unmarked) [ADR-ceph, 3-[[(N-adriamycinyl)carbonyloxy]methyl]-7-phenylacetamido-8-oxo-5-thia-1-azabicyclo[4.2.0]oct-2-ene-2-carboxylic acid], the “Hydrolysis, µmoles/min/µg protein” value [3] is reported as 0.021 µmoles/min/µg protein, the “Hydrolysis, µmoles/min/µg protein” value [4] is reported as 0.060 µmoles/min/µg protein and the “Hydrolysis, µmoles/min/µg protein” value [5] is reported as 0.0030 µmoles/min/µg protein. The half-life [6] was no less than 12 h, the “hydrolysis of ADR-ceph, release of adriamycin” value [7] was “efficiently hydrolyzed” and the “Hydrolysis, µmoles/min/µg protein” value (B. cereus β-lactamase [8]) was 0.016 µmoles/min/µg protein. The half-life [9] was 8 h and the half-life [10] was 20 h.
For O=C(Cc1cccs1)N[C@@H]1C(=O)N2C(C(=O)[O-])=C(C[n+]3ccccc3)CS[C@H]12 [Cephaloridine, reference compound], the “Hydrolysis, µmoles/min/µg protein” value [3] was 0.045 µmoles/min/µg protein, the “Hydrolysis, µmoles/min/µg protein” value [4] was 0.30 µmoles/min/µg protein and the “Hydrolysis, µmoles/min/µg protein” value [5] was 0.026 µmoles/min/µg protein. For the same molecule, the “Hydrolysis, µmoles/min/µg protein” value (B. cereus β-lactamase [8]) was 0.038 µmoles/min/µg protein.
For O=C(Cc1ccccc1)NC1C(=O)N2C(C(=O)O)=C(COC(=O)Nc3ccc(N(CCCl)CCCl)cc3)CSC12 (centres unmarked) [CM], the “hydrolysis of CM, release of PDM” value (E. coli β-lactamase) was “able to hydrolyze CM to release the nitrogen mustard, PDM”, the “cytotoxic effect of CM with the antibody-β-lactamase conjugate” value (H2981 lung cells) was “enhanced cytotoxic effect” and the IC50 [11] was roughly 100 µM. For the same molecule, the “cytotoxic activity of CM with purified B. cereus β-lactamase (II)” value [11] was “enhanced the cytotoxic activity of CM to the level observed for PDM”, the “enhancement of the activity of CM by β-lactamases” value [11] was 50-100 fold and the “hydrolysis of CM, release of PDM” value (B. cereus β-lactamase [12]) was “able to hydrolyze CM to release the nitrogen mustard, PDM”. The Km ([2]; CM as substrate) was 25 µM, the Vmax ([2]; CM as substrate) was 250 µmol/min/mg and the “difference in toxicity on a molar basis, CM versus PDM” value (Balb C nu/nu mice) was greater than 11 fold. For the same molecule, the “dose up to which no toxicity was observed” value (Balb C nu/nu mice) was no less than 900 µg/injection, the half-life at 500 µM (physchem) was 0.5 h and the metabolised at 2.5 h, 500 µM (in vitro) was 12%.
